Measured values taken from ChEMBL document CHEMBL5727769, “Tricyclic fused derivatives of 1-(cyclo)alkyl pyridin-2-one useful for the treatment of cancer” (2020).

Target: Bromodomain-containing protein 4 (Homo sapiens, UniProt O60885)
Experiment: AlphaLISA Assay: Compounds were diluted by step-down dilution method (final concentration of DMSO was 1%) and added to the wells of a 384 well opti plate at desired concentrations. 5 nM BDR4-BD1 enzyme (produced in-house) and 12 nM of biotinylated substrate were added to the wells, covered and incubated at room temperature (RT) for 1 h. At the end of 1 h 250 ng of GSH acceptor beads were added to the well and incubated for 1 h at RT; then 500 ng of streptavidin donor beads were added and incubated again for 1 h at RT. Plates were read in a Pherastar reader at 680 nm excitation and 570 nm emission

IC50: 1.6 nM
SMILES: CCNC(=O)CC1N=C(c2ccc(Cl)cc2)c2cc(OC)ccc2-c2cn(C)c(=O)cc21 (racemic)
